Data: patent US20070141723A1, “Immunohistochemistry staining controls” (priority 2005, published 2007)
*: point of attachment. FITC = O=C1OC2(c3ccc(O)cc3Oc3cc(O)ccc32)c2ccc(NC(=S)*)cc21

Key:
1D5 monoclonal antibody = test: Peptide ELISA of synthetic ER peptides with 1D5; type: binding, mouse; conditions: compared among ER peptides 3, 4 and 6
Text: Three synthetic peptides (designated as ER peptide 3, ER peptide 4, and ER peptide 6), that are representative of above consensus phage sequence, were synthesized (by SynPep Labs, Dublin, Calif. and Bachem Labs, King of Prussia, Pa.) and tested for specificity/affinity to 1D5 monoclonal antibody.

ER peptide mimic = test: immunostaining of ER peptide mimic spots on matrix, semi-quantitative colour score

“Ac-DFQCPYVECVVNAPGGK (FITC) GK-CONH2 (Ac-DFQCPYVECVVNAPGGK(FITC)GK-NH2; cysteine pairing not given here) [ER peptide 3]” was tested. Which “peptide ELISA signal” value (1D5 monoclonal antibody) did it give?
The value was “highest signal”.

“anti-human estrogen receptor mouse monoclonal antibody 1D5” was tested. Which Staining intensity (1-4+) (ER peptide mimic) did it give?
The Staining intensity (1-4+) was 4 1-4+ scale.
